Experiments:
Caco-2 cells [1] = test: Transwell cell invasion assay; assay type: cell-based, human; conditions: IC50 concentration; for inhibition in Caco-2 cell invasion compared to control: 24 h; for percentage inhibition of Caco-2 cell invasion: 48 h
Protocol: Caco-2 cell invasion was assessed using a QCM™ 24-well Colorimetric Cell Invasion Assay kit (Chemicon International, Temecula, CA, USA (Cat # ECM551)), according to the manufacturer’s instructions. Cells were starved of serum for 24 h. […] Inserts were further added into a 24-well plate containing 500 µL of 10% FBS-containing DMEM per well. After incubation for 24 or 48 h at 37 °C, remaining media was removed from the invasion chamber, and cells that had migrated to the other side of the membrane were stained with “Cell Stain” solution for 20 min at room temperature. Non-invaded cells were carefully removed from the upper side of the chamber with the help of cotton-tipped swabs. The stain of invaded cells was then extracted by 200 µL of extraction buffer in a clean well for 15 min at room temperature. Finally, 100 µL extracted stained solution was transferred into a 96-well plate and the optical density was measured at 490 nm with BioTek 800 TS microplate reader.

Caco-2 cells [2] = test: Intracellular and secreted glutamate assay; assay type: cell-based, human; conditions: Caco-2, IC50 doses, 24 h
Protocol: The glutamate assay was performed using the Glutamate Assay Kit (Sigma-Aldrich, MAK004, St. Louis, MO, USA) according to the manufacturer’s protocol. […] Cells were lysed using 100 µL glutamate assay buffer and insoluble cell debris was then removed by centrifugation at 13,000× g for 10 min. The supernatant was transferred to a 10-KDa molecular weight cut-off (MWCO) spin filter (Sigma-Aldrich, St. Louis, MO, USA) to remove any particulates in the sample, and then was brought to a final volume of 50 µL with glutamate assay buffer and transferred to a 96-well plate. Finally, 100 µL of reaction mix was added to each well and the mixture was incubated for 30 min at 37 °C. The optical density was measured at 450 nm using BioTek 800 TS microplate reader (BioTek, Winooski, VT, USA). For the measurement of secreted glutamate, 50 μL samples of extracellular culture medium were placed in a 96-well plate and the kit’s enzymatic reaction mix was added to induce a glutamate-dependent color change. After 30 min incubation, the reaction products were read at the same wavelength. For determination of glutamate concentration (nmole/µL), a calibration curve was constructed using supplied 0.1 M glutamate standard with different dilutions (0 (blank), 2, 4, 6, 8 and 10 nmole per well). Glutamate concentration was measured according to the manufacturer’s instruction and as documented in earlier studies.

WI-38 = test: MTT antiproliferation/cytotoxicity assay; assay type: cell-based, human; conditions: for IC50: Homo sapiens, WI-38 normal cells, MTT, 24 h, mean ± SEM; for SI (selectivity index): WI-38, SI = IC50 (WI-38)/IC50 (cell line)
Protocol: (§1) The antiproliferation and cytotoxicity were assessed using 3-(4,5-dimethylthiazol-2-yl)-2,5-diphenyltetrazolium bromide (MTT, Serva) colorimetric assay. To investigate the antiproliferation, all cell lines were seeded at a density of 20,000 cells per well in 96-well plates and allowed to adhere overnight. […] These concentrations were prepared by diluting the stock solutions with serum-free culture media. The negative control cells were those treated with 0.1% DMSO solvent alone. The treated cells were handled in reduced light and maintained under standard culture growth conditions for 24 h. After the incubation period, MTT powder was prepared as a stock solution (5 mg/mL) and 20 μL of the MTT working reagent (final concentration 0.5 mg/mL) was added to each well. This was followed by incubation with MTT reagent for 4 h in a humidified atmosphere (37 °C, 5% CO2) with subsequent addition of 150 μL of DMSO solubilizing solvent and incubation for 20 min. The absorbance of solubilized violet formazan crystals was measured at 540 nm with Biotek 800 TS microplate reader. IC50 was calculated as the concentration of retinoid that produced 50% cell growth inhibition. For cytotoxicity assessment, WI-38 normal human fibroblast cells were used for the calculation of SI which is the ratio of IC50 retinoid (WI-38)/IC50 retinoid (cancer cell line).

Caco-2 cells [3] = test: Total antioxidant capacity (TAC/TAO); assay type: cell-based, human; conditions: Caco-2 cell lysate, IC50 concentration, 24 h; solvent control 32.6 ± 0.21
Protocol: Total antioxidant capacity was assayed spectrophotometrically using a Biodiagnostics® kit (Catalogue number TA 25 13, Biodiagnostics, Cairo, Egypt). […] The measurement of total antioxidants is based on treating the cell lysate with a known excess of H2O2 (50 µM). A certain amount of H2O2, equivalent to TAC, is eliminated leaving a residual amount of H2O2 that is quantified colorimetrically by the enzymatic conversion of 3, 5, dichloro-2-hydroxy benzene sulphonate to a colored product.

Vero = test: MTT antiproliferation/cytotoxicity assay; assay type: cell-based, African green monkey; conditions: Chlorocebus sabaeus, Vero normal cells, 24 h, mean ± SEM
Protocol: as §1

HepG2 = test: MTT antiproliferation assay; assay type: cell-based, human; conditions: for SI (selectivity index): HepG2, SI = IC50 (WI-38)/IC50 (cancer cell line); for IC50: Homo sapiens, HepG2, MTT, 24 h, mean ± SEM
Protocol: as §1

A549 = test: MTT antiproliferation assay; assay type: cell-based, human; conditions: for SI (selectivity index): A549, SI = IC50 (WI-38)/IC50 (cancer cell line); for IC50: Homo sapiens, A549, MTT, 24 h, mean ± SEM
Protocol: as §1

DU-145 = test: MTT antiproliferation assay; assay type: cell-based, human; conditions: for SI (selectivity index): DU-145, SI = IC50 (WI-38)/IC50 (cancer cell line); for IC50: Homo sapiens, DU-145, MTT, 24 h, mean ± SEM
Protocol: as §1

PC3 = test: MTT antiproliferation assay; assay type: cell-based, human; conditions: for IC50: Homo sapiens, PC-3, PC3, MTT, 24 h, mean ± SEM; for SI (selectivity index): PC3, SI = IC50 (WI-38)/IC50 (cancer cell line)
Protocol: as §1

HCT-116 = test: MTT antiproliferation assay; assay type: cell-based, human; conditions: for SI (selectivity index): HCT-116, SI = IC50 (WI-38)/IC50 (cancer cell line); for IC50: Homo sapiens, HCT-116, MTT, 24 h, mean ± SEM
Protocol: as §1

Huh7 = test: MTT antiproliferation assay; assay type: cell-based, human; conditions: for IC50: Homo sapiens, Huh-7, Huh7, MTT, 24 h, mean ± SEM; for SI (selectivity index): Huh7, SI = IC50 (WI-38)/IC50 (cancer cell line)
Protocol: as §1

MDA-MB 231 = test: MTT antiproliferation assay; assay type: cell-based, human; conditions: for IC50: Homo sapiens, MDA-MB 231, MTT, 24 h, mean ± SEM; for SI (selectivity index): MDA-MB 231, SI = IC50 (WI-38)/IC50 (cancer cell line)
Protocol: as §1

Caco-2 = test: MTT antiproliferation assay; assay type: cell-based, human; conditions: for SI (selectivity index): Caco-2, SI = IC50 (WI-38)/IC50 (cancer cell line); for IC50: Homo sapiens, Caco-2, MTT, 24 h, single agent, mean ± SEM
Protocol: as §1

MCF-7 = test: MTT antiproliferation assay; assay type: cell-based, human; conditions: for IC50: Homo sapiens, MCF7, MCF-7, MTT, 24 h, mean ± SEM; for SI (selectivity index): MCF-7, SI = IC50 (WI-38)/IC50 (cancer cell line)
Protocol: as §1

| inhibition in Caco-2 cell invasion compared to control (Caco-2 cells [1]) [%] | percentage inhibition of Caco-2 cell invasion (Caco-2 cells [1]) [%] | IC50 (HepG2) [µM] | IC50 (A549) [µM] | IC50 (DU-145) [µM] | IC50 (PC3) [µM] | IC50 (HCT-116) [µM] | IC50 (Huh7) [µM] | IC50 (MDA-MB 231) [µM] | IC50 (Caco-2) [µM] | IC50 (MCF-7) [µM] | Structure (SMILES) | released (extracellular) glutamate, magnitude of reduction (Caco-2 cells [2]) [%] | IC50 (WI-38) [µM] | SI (selectivity index) (WI-38) | Total antioxidant activity (TAO) (Caco-2 cells [3]) [µM/L] | IC50 (Vero) [µM] | SI (selectivity index) (HepG2) | SI (selectivity index) (A549) | SI (selectivity index) (DU-145) | SI (selectivity index) (PC3) | further results |
| --- | --- | --- | --- | --- | --- | --- | --- | --- | --- | --- | --- | --- | --- | --- | --- | --- | --- | --- | --- | --- | --- |
| 7.2 | 17.2 | 42.2 ± 0.92 | > 100 | 86.9 ± 2 | > 100 | > 100 | > 100 | > 100 | 10.8 ± 0.1 | 9.4 ± 0.13 | CC1(C)CCC(C)(C)c2cc(C#Cc3cccc(C(=O)O)c3)ccc21 [EC19, 3-(5,5,8,8-tetramethyl-5,6,7,8-tetrahydronaphthalen-2-ylethynyl) benzoic acid] | 1.4 | 48.4 ± 1.2 | 1 | 22.6 ± 0.024 | > 100 | 1.2 ± 0.002 | <1 | 0.56 ± 0.001 | <1 | SI (selectivity index) (HCT-116): <1; SI (selectivity index) (Huh7): 0.14 ±0.01; SI (selectivity index) (MDA-MB 231): <1; SI (selectivity index) (Caco-2): 4.5 ± 0.01; SI (selectivity index) (MCF-7): 5.18 ± 0.1 |
| 3.8 | 8.6 | 36.2 ± 1.9 | 84.7 ± 3.2 | > 100 | > 100 | > 100 | > 100 | > 100 | 58 ± 1 | 99 ± 0.26 | CC1=C(/C=C/C(C)=C/C=C/C(C)=C/C(=O)O)C(C)(C)CCC1 [ATRA, All-trans retinoic acid, reference compound] | 24.1 | 34 ± 1.1 |  | 62.6 ± 0.15 | > 100 |  |  |  |  |  |
| 4.8 | 15.8 | 0.74 ± 0.001 | > 100 | > 100 | > 100 | 44.5 ± 1.1 | > 100 | > 100 | 14.7 ± 0.73 | 5.56 ± 0.01 | CC1(C)CCC(C)(C)c2cc(C#Cc3ccc(C(=O)O)cc3)ccc21 [EC23, 4-(5,5,8,8-tetramethyl-5,6,7,8-tetrahydronaphthalen-2-ylethynyl) benzoic acid] | 5 | 8.01 ± 0.13 | 1 | 22.6 ± 0.024 | 35.2 ± 1.02 | 10.82 ± 1.0 | <1 | <1 | <1 | SI (selectivity index) (HCT-116): 0.18 ± 0.003; SI (selectivity index) (Huh7): 0.02 ± 0.001; SI (selectivity index) (MDA-MB 231): <1; SI (selectivity index) (Caco-2): 0.54 ±0.01; SI (selectivity index) (MCF-7): 1.44 ± 0.004 |

Reference: PMC7835894 (Molecules, 2021)
